In test [1] the target is Beta-1 adrenergic receptor (Homo sapiens, UniProt P08588). In kind it is functional.
Test [2] addresses Beta-2 adrenergic receptor (Homo sapiens, UniProt P07550).
The target of test [3] is T1, Muscarinic acetylcholine receptor M2 (Homo sapiens, UniProt P08172).
T1 sequence (P08172 whole entry): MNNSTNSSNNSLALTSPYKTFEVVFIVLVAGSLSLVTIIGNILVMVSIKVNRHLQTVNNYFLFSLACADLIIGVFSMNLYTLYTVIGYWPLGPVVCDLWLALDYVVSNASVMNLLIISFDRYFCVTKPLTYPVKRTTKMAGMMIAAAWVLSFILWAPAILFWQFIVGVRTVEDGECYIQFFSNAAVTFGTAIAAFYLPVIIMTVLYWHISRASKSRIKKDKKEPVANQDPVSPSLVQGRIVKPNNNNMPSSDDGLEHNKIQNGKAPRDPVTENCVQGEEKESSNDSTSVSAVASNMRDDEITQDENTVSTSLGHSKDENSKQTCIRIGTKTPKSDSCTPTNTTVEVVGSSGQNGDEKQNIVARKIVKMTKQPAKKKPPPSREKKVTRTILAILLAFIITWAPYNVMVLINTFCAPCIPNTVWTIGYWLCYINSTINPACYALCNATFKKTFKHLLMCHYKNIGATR
The format is functional, cell-based.

Another test concerns the target Histamine H3 receptor (Homo sapiens, UniProt Q9Y5N1).
Test [4] addresses T2, 5-hydroxytryptamine receptor 1A (Homo sapiens, UniProt P08908).
T2 sequence (P08908 whole entry): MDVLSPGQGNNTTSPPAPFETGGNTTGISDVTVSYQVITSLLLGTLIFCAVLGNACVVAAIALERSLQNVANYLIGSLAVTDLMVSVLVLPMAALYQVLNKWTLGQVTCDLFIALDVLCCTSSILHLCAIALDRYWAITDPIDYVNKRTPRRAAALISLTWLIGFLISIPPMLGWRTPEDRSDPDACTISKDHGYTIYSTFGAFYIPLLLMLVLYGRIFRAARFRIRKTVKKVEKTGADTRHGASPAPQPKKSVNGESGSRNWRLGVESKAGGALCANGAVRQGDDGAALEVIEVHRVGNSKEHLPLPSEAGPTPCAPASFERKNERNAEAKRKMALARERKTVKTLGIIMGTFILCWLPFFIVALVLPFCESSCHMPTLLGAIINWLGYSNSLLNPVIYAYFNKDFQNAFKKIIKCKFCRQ
The format is functional, cell-based.

A further test has as its target Melanocortin receptor 4 (Homo sapiens, UniProt P32245).
In test [5] the target is Kappa-type opioid receptor (Homo sapiens, UniProt P41145).
Kappa-type opioid receptor, sequence (P41145 whole entry): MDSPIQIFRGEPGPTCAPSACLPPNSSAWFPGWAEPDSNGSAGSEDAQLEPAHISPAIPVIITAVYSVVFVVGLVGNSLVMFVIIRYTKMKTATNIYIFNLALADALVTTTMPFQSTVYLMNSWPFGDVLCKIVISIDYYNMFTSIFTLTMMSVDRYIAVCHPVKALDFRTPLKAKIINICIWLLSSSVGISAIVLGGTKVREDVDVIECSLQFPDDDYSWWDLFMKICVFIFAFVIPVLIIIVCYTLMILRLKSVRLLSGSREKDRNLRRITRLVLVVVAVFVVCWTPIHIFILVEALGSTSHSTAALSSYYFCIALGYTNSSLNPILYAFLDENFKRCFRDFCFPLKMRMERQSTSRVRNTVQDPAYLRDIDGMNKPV
The target in a further test is Mu-type opioid receptor (Homo sapiens, UniProt P35372). As to the kind of experiment: biochemical. The format is functional.
Mu-type opioid receptor, sequence (P35372 whole entry): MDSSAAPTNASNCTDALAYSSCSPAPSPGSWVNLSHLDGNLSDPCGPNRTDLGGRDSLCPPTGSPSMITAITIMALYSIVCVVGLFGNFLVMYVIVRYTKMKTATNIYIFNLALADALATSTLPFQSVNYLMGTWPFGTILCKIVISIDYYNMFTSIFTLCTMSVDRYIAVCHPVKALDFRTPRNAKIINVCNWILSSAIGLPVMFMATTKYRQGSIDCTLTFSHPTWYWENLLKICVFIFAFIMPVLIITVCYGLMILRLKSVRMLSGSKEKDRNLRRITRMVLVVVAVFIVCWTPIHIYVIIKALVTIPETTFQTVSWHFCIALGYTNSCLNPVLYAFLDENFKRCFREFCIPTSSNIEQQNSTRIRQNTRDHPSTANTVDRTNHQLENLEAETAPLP
In test [6] the target is Prostaglandin G/H synthase 1 (Homo sapiens, UniProt P23219). The format is functional.
Prostaglandin G/H synthase 1, sequence (P23219 whole entry): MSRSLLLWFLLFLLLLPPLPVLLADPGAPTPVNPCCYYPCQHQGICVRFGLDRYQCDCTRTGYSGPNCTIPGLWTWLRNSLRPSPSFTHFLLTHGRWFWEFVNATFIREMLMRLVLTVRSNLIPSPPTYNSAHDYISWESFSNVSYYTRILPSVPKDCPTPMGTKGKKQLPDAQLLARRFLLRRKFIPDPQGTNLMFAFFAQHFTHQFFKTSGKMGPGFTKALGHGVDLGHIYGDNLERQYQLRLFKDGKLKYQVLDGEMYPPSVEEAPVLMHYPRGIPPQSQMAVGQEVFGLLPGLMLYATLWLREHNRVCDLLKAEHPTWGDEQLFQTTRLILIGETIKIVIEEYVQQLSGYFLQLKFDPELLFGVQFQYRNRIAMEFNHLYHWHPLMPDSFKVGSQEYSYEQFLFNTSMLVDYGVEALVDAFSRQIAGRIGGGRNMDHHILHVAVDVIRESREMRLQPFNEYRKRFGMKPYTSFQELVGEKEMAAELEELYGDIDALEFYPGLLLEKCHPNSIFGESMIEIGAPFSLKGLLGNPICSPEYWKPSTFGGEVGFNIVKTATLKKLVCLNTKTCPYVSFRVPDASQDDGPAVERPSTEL
The target of a further test is T3, Thromboxane A2 receptor (Homo sapiens, UniProt P21731).
T3 sequence (P21731 whole entry): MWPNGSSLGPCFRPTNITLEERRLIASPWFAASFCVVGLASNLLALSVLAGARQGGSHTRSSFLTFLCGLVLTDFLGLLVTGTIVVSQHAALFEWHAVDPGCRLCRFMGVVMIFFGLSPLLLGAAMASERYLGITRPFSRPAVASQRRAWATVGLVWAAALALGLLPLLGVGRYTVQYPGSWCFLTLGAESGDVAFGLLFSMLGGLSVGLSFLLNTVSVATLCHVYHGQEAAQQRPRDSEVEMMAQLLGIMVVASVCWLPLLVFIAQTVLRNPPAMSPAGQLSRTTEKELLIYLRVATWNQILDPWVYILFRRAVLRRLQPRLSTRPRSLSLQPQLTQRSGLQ

Test [7] has as its target T4, Alpha-2B adrenergic receptor (Homo sapiens, UniProt P18089).
T4 sequence (P18089 whole entry): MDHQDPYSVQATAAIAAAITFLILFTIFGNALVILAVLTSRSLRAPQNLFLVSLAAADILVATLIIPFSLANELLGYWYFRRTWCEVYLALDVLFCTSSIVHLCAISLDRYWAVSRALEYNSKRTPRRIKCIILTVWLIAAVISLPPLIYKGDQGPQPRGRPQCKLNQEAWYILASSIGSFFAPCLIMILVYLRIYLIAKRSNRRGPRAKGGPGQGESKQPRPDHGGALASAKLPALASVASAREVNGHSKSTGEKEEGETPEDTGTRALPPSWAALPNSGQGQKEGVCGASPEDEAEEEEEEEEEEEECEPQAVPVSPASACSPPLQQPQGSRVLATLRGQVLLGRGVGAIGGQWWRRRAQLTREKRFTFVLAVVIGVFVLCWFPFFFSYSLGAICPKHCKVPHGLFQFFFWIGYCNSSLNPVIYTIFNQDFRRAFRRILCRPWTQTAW

Test [8] deals with Muscarinic acetylcholine receptor M3 (Homo sapiens, UniProt P20309).
Muscarinic acetylcholine receptor M3, sequence (P20309 whole entry): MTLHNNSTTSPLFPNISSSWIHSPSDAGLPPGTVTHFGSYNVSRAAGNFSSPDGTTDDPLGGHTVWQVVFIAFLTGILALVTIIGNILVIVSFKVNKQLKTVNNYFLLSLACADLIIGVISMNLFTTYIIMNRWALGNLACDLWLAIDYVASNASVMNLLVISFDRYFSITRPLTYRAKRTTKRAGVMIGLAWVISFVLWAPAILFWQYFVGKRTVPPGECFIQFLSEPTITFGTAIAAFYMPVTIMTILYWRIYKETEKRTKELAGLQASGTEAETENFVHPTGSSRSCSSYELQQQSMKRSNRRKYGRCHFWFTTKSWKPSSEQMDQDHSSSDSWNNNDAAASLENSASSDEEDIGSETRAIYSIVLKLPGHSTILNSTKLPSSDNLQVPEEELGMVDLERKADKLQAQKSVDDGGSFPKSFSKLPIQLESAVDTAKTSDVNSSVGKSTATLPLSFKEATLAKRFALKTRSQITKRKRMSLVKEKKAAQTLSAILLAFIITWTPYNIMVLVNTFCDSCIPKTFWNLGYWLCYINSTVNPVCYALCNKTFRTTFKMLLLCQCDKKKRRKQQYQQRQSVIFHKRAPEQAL
Test [9] has as its target T5, Estrogen receptor (Homo sapiens, UniProt P03372).
T5 sequence (P03372 whole entry): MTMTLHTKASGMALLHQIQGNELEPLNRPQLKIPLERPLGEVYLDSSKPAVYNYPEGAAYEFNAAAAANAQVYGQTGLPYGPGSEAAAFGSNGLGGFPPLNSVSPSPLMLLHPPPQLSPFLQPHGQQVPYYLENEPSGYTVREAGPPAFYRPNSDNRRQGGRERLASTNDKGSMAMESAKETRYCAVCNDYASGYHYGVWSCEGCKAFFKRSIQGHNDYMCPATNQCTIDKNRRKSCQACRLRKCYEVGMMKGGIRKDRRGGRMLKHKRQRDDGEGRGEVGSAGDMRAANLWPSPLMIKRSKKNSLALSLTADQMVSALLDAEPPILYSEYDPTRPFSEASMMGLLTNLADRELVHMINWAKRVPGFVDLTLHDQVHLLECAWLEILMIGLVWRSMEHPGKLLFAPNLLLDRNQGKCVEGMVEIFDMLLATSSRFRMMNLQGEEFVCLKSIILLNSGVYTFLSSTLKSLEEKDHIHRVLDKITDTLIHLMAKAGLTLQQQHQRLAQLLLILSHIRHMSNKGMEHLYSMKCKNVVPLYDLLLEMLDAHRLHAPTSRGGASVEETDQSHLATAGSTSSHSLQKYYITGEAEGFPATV

Test [10] concerns the target T5, Estrogen receptor. The source holds these as a separate data set.
Further: assay procedure not described here.

Beta-2 adrenergic receptor, sequence (P07550 whole entry): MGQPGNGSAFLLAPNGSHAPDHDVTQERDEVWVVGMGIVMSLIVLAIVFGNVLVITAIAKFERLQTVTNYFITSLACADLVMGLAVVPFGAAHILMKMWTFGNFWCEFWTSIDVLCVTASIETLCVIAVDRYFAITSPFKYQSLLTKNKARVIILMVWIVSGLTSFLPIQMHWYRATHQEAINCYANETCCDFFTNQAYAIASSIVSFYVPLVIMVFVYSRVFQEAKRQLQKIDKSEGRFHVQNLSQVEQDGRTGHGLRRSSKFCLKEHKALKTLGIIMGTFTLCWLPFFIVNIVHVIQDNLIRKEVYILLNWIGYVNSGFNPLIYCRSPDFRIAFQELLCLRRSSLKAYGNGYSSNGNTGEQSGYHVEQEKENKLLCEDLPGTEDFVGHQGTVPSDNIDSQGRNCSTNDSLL
Histamine H3 receptor, sequence (Q9Y5N1 whole entry): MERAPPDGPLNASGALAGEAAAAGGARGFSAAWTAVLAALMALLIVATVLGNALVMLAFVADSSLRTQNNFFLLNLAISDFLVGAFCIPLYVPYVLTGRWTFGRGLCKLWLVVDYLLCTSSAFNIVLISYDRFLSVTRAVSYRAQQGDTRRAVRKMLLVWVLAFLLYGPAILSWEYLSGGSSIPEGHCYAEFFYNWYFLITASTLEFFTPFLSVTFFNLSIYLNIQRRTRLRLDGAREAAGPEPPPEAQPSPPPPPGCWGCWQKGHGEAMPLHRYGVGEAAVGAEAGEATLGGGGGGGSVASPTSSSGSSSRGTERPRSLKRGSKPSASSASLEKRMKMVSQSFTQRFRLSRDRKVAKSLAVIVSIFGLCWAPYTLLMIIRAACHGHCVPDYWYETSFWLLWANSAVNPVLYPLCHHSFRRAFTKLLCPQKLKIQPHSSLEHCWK
Melanocortin receptor 4, sequence (P32245 whole entry): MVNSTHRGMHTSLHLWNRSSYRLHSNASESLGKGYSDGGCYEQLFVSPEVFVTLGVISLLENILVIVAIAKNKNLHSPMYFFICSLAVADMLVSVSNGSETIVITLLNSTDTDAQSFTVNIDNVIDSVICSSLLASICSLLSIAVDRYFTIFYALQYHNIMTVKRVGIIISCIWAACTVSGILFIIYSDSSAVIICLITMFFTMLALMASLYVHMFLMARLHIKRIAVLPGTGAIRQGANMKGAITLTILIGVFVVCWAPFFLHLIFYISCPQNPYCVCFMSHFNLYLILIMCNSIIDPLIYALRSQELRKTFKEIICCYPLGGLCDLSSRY
Beta-1 adrenergic receptor, sequence (P08588 whole entry): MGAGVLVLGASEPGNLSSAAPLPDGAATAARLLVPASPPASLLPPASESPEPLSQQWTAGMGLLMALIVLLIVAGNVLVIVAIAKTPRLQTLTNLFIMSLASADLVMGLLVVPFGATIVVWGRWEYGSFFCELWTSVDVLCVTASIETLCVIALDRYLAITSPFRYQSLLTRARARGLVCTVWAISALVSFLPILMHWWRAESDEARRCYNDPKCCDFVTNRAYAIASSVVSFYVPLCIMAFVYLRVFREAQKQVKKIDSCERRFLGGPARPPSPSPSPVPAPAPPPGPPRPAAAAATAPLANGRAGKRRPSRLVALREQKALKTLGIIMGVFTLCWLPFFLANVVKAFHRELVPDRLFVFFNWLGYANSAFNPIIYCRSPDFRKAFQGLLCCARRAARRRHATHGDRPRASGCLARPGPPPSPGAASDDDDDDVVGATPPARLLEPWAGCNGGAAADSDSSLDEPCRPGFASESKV

`C[C@H]1O[C@H](O[C@H]2[C@H](O)[C@@H](O)[C@@H](O[C@H]3[C@H](O)[C@@H](O)C(O)O[C@@H]3CO)O[C@@H]2CO)[C@H](O)[C@@H](O)[C@@H]1N[C@H]1C=C(CO)[C@@H](O)[C@H](O)[C@H]1O` (stereo partly drawn) [ACARBOSE]: the AC50 (in general, the concentration at which the activity in the assay is half-maximal) in test [1] was more than 30 µM; in [2], more than 30 µM; in test [3], more than 10 µM; at Histamine H3 receptor it was more than 30 µM; in test [4] it was more than 10 µM; at Melanocortin receptor 4, more than 30 µM. In addition, the AC50 was more than 10 µM in [5], more than 30 µM at Mu-type opioid receptor, more than 30 µM in [6] and more than 30 µM at Thromboxane A2 receptor.

Consider `CC(C)NCC(O)COc1ccc(COCCOC(C)C)cc1` (stereo not drawn) [BISOPROLOL], for which the AC50 in [7] is more than 10 µM; in test [3], more than 10 µM; in test [8], more than 30 µM; on Estrogen receptor [9], more than 30 µM; in [4], more than 10 µM; on Melanocortin receptor 4, more than 30 µM. For the same compound, the values for the AC50 (in test [5]; on Mu-type opioid receptor; on Thromboxane A2 receptor) were more than 10 µM, more than 30 µM and more than 30 µM, respectively.

As for `CC(=O)OCC(=O)[C@@]1(O)CC[C@H]2[C@@H]3CCC4=CC(=O)CC[C@]4(C)[C@H]3C(=O)C[C@@]21C` [CORTISONE ACETATE], the concentration at half-maximal activity (AC50) (at Estrogen receptor [10]; in test [4]; in [5]) was more than 30 µM in each case.

In the case of `O=C(O)c1cc(-c2ccc(F)cc2F)ccc1O` [DIFLUNISAL], the AC50 (in test [1]; in test [2]; in [3]; at Estrogen receptor [9]; in test [4]; at Melanocortin receptor 4) was more than 10 µM each time. Besides, the AC50 in test [5] is more than 10 µM; at Mu-type opioid receptor, more than 30 µM; on Thromboxane A2 receptor it was more than 10 µM.

As for `CCC(=O)O[C@H]1[C@H](O[C@@H]2[C@@H](C)[C@H](O[C@H]3C[C@@](C)(OC)[C@@H](O)[C@H](C)O3)[C@@H](C)C(=O)O[C@H](CC)[C@@](C)(O)[C@H](O)[C@@H](C)C(=O)[C@H](C)C[C@@]2(C)O)O[C@H](C)C[C@@H]1N(C)C` [ERYTHROMYCIN PROPIONATE], the AC50 on Estrogen receptor [10] was more than 30 µM; at Histamine H3 receptor, more than 30 µM; in [6], more than 10 µM.

For `Cc1c(-c2ccccc2)oc2c(C(=O)OCCN3CCCCC3)cccc2c1=O` [FLAVOXATE], the AC50 was more than 30 µM at Estrogen receptor [10], 24.6 µM on Histamine H3 receptor and more than 30 µM in test [6].

Regarding `CC1(C)O[C@@H]2C[C@H]3[C@@H]4C[C@H](F)C5=CC(=O)CC[C@]5(C)[C@H]4[C@@H](O)C[C@]3(C)[C@]2(C(=O)CO)O1` [FLURANDRENOLIDE], the AC50 (on Estrogen receptor [10]; on Histamine H3 receptor; in test [6]) was more than 30 µM in each case.

Regarding `NC[C@H]1O[C@H](O[C@H]2[C@H](O)[C@@H](O[C@H]3O[C@H](CO)[C@@H](O)[C@H](N)[C@H]3O)[C@H](N)C[C@@H]2N)[C@H](O)[C@@H](O)[C@@H]1O` [KANAMYCIN], the AC50 in test [2] was more than 10 µM; in test [3] it was more than 10 µM; on Estrogen receptor [9], more than 10 µM; in test [4], more than 10 µM; on Melanocortin receptor 4, more than 10 µM; in test [5] it was more than 30 µM. For the same compound, the AC50 on Mu-type opioid receptor was more than 30 µM; at Thromboxane A2 receptor, more than 10 µM.

With `C#C[C@]1(O)CC[C@H]2[C@@H]3CCC4=CC(=O)CC[C@@H]4[C@H]3CC[C@@]21CC` [LEVONORGESTREL], the AC50 on Estrogen receptor [10] was 8.65 µM; on Histamine H3 receptor, more than 30 µM; in test [6], more than 30 µM.

Consider `OC[C@@H](O)[C@@H](O)[C@H](O)[C@H](O)CO` [MANNITOL], for which the AC50 (on Estrogen receptor [10]; on Histamine H3 receptor; in test [6]) was more than 30 µM each time.

In the case of `CN1C(=O)CC(C)(c2ccccc2)C1=O` (stereo not drawn) [METHSUXIMIDE], the AC50 in test [7] was more than 10 µM; in test [1], more than 10 µM; in test [2], more than 10 µM; in [3], more than 10 µM; in test [8] it was more than 30 µM; at Estrogen receptor [9] it was more than 10 µM. For the same compound, the AC50 is more than 10 µM in test [4]; more than 10 µM at Melanocortin receptor 4; more than 10 µM in test [5]; more than 30 µM on Mu-type opioid receptor; more than 10 µM at Thromboxane A2 receptor.

In the case of `CCc1nn(CCCN2CCN(c3cccc(Cl)c3)CC2)c(=O)n1CCOc1ccccc1` [NEFAZODONE], the AC50 in test [7] was 0.34 µM; in test [1] it was more than 10 µM; in test [2], more than 10 µM; in test [8], more than 10 µM; at Estrogen receptor [9], more than 30 µM; at Melanocortin receptor 4, more than 30 µM. For the same compound, the figures for the concentration at half-maximal activity (AC50) (in test [5]; on Mu-type opioid receptor; at Thromboxane A2 receptor) were 5.46 µM, 7.6 µM and 23.9 µM, respectively.

On to `COC(=O)C1=C(C)NC(C)=C(C(=O)OCC(C)C)C1c1ccccc1[N+](=O)[O-]` (stereo not drawn) [NISOLDIPINE], for which the AC50 in test [1] is more than 10 µM; in [2] it was more than 10 µM; in test [3], more than 10 µM; at Estrogen receptor [9], more than 30 µM; in test [4], more than 10 µM; at Melanocortin receptor 4, more than 10 µM. For the same compound, the figures for the AC50 (in test [5]; on Mu-type opioid receptor; at Thromboxane A2 receptor) were more than 10 µM, more than 30 µM and more than 10 µM, respectively.

With `NC[C@H]1CC[C@H](C(=O)O)CC1` [TRANEXAMIC ACID], the half-maximal activity concentration (AC50) (in [1]; in [2]; in test [3]; on Estrogen receptor [9]; in test [4]; on Melanocortin receptor 4) was more than 10 µM in each case. For the same compound, the concentration at half-maximal activity (AC50) was more than 10 µM in test [5], more than 30 µM on Mu-type opioid receptor and more than 10 µM at Thromboxane A2 receptor.

With `O=C(CCCCCCC(=O)Nc1ccccc1)NO` [VORINOSTAT], the AC50 in test [7] was more than 30 µM; in test [1], more than 30 µM; in test [2] it was more than 10 µM; in test [3], more than 30 µM; in [8], more than 30 µM; on Estrogen receptor [9], more than 30 µM. The AC50 (in test [4]; at Melanocortin receptor 4; in test [5]; on Mu-type opioid receptor; on Thromboxane A2 receptor) was more than 30 µM throughout.

(Values after ChEMBL document CHEMBL5291721, “A preclinical secondary pharmacology resource illuminates target-adverse drug reaction associations of marketed drugs” (Nat Commun, 2023).)
